Read-outs that look alike come from different tables or passages of the source.
Tests used:
Type in all cases: cell-based
PI3Kβ = biological target: T1, PI3Kβ (Homo sapiens, UniProt P42338); assay: Selectivity study, p-AKT (Ser473) HTRF assay in 786-O cells; details: 786-O cell, 1 hour incubation, serum-free medium
T1 construct: endogenous in cells; host or cells: 786-O
Method: The following day, the complete medium was replaced with serum-free medium, 3-fold serial diluted compound solution in serum-free medium was added to each well according to the plate map. After 1 hour incubation, removed cell supernatant carefully and added supplemented lysis buffer (1×) for 45 min. The lysate was transferred to a 384-well small volume white plate, the CisBio Phospho-AKT (Ser473) HTRF assay was performed as the manufacturer's directions (Cisbio, #64AKSPEG).

[1] = system: PI3Kα wide type cell line SK-BR-3; assay: Cell Proliferation IC50 Assay (CellTiter-Glo), SK-BR-3; details: SK-BR-3 (PI3Kα wild type), 72 hours, CellTiter-Glo, read-out: IC50 (μM) SK-BR-3
How it was run: (§1)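 Cells were seeded and left overnight, then exposed to serially diluted compound (200-fold final dilution) for 72 h at 37 °C, 5% CO2. Viability was read by CellTiter-Glo luminescence. Percent inhibition and IC50 were calculated from the signal.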

[2] = system: PI3Kα H1047R mutation cell line T-47D; assay: Cell Proliferation IC50 Assay (CellTiter-Glo), T-47D; details: T47D (H1047R), 72 hours, CellTiter-Glo, read-out: IC50 (μM) T47D
How it was run: as §1

[3] = system: PI3Kα H1047R mutation cell line MDA-MB-453; assay: Cell Proliferation IC50 Assay (CellTiter-Glo), MDA-MB-453; details: MDA-MB-453 (H1047R), 72 hours, CellTiter-Glo, read-out: IC50 (μM) MDA-MB-453
How it was run: as §1

PI3Kα H1047R mutant = PI3Kα H1047R mutant (Homo sapiens, UniProt P42336, H1047R); assay: pAKT (S473) ELISA assay in PI3Kα H1047R mutant cell line (T47D); details: T47D cells, two hours compound, IGF-1 50 ng/ml stimulation
Method: (§2) Cells were serum starved for 4 hours prior to compound treatment; compound solution was added to each well (3-fold serial dilution starting at desired concentration) for two hours in serum-free medium, followed by stimulation with IGF-1 for 60 minutes at a final concentration of 50 ng/ml as noted. After compound treatment and stimulation, discarded the supernatant and cells were lysed by cell lysis buffer (Cell Signaling Technology, #9803S). The lysate was transferred to the ELISA plate, the Phospho-AKT (Ser473) ELISA was performed as the manufacturer's directions (Cell Signaling Technology, #7160CA).

PI3Kα WT = PI3Kα WT (Homo sapiens, UniProt P42336); assay: pAKT (S473) ELISA assay in WT cell line (SK-BR-3); details: SK-BR-3 cells, two hours compound, IGF-1 50 ng/ml stimulation
Method: as §2

T1 sequence (P42338 whole entry): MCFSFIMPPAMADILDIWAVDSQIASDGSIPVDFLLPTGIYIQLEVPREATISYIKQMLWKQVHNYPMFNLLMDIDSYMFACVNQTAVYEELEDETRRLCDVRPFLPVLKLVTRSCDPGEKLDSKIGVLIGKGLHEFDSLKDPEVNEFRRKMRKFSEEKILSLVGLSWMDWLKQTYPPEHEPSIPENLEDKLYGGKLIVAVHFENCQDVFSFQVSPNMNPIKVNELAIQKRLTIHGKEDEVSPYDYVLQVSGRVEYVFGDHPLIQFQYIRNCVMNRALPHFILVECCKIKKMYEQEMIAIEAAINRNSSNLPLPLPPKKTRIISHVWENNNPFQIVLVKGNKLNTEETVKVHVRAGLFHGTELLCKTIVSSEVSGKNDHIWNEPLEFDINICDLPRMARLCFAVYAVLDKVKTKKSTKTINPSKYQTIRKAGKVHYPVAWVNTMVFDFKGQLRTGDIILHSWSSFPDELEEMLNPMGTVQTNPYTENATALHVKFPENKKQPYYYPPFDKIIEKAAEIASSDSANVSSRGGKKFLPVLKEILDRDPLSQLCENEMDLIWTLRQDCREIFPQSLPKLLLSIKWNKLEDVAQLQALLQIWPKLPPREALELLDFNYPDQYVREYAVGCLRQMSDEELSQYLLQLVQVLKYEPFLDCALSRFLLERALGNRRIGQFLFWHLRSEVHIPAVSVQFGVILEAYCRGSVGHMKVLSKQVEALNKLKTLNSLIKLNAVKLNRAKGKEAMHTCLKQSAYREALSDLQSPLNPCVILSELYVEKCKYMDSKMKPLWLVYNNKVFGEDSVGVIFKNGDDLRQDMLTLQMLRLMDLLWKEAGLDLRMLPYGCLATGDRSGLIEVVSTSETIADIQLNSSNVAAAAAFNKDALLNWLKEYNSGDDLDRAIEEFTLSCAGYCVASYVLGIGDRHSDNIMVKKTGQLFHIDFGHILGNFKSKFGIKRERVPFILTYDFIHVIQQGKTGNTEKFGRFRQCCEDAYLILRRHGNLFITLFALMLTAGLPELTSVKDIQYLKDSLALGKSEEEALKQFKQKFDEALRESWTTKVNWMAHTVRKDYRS
T1 sequence (P27986 whole entry partner): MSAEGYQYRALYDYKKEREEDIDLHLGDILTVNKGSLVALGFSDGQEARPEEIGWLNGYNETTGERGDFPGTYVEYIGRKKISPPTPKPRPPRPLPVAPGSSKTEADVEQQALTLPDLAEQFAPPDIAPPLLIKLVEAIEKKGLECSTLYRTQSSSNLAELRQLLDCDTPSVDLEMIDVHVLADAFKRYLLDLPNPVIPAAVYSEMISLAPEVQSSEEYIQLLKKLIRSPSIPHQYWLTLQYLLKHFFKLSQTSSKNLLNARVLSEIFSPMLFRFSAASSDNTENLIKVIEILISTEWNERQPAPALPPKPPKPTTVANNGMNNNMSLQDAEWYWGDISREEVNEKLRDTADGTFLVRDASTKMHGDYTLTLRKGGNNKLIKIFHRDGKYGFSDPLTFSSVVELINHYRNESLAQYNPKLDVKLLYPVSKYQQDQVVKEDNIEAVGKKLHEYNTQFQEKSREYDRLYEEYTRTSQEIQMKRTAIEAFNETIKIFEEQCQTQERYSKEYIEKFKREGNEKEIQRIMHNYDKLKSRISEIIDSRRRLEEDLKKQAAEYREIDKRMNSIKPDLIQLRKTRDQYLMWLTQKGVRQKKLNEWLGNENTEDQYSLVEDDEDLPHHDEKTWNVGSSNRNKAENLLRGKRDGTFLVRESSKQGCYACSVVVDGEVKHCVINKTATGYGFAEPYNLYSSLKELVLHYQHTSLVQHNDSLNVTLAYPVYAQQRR
Chain of PI3Kα WT (P42336 whole entry): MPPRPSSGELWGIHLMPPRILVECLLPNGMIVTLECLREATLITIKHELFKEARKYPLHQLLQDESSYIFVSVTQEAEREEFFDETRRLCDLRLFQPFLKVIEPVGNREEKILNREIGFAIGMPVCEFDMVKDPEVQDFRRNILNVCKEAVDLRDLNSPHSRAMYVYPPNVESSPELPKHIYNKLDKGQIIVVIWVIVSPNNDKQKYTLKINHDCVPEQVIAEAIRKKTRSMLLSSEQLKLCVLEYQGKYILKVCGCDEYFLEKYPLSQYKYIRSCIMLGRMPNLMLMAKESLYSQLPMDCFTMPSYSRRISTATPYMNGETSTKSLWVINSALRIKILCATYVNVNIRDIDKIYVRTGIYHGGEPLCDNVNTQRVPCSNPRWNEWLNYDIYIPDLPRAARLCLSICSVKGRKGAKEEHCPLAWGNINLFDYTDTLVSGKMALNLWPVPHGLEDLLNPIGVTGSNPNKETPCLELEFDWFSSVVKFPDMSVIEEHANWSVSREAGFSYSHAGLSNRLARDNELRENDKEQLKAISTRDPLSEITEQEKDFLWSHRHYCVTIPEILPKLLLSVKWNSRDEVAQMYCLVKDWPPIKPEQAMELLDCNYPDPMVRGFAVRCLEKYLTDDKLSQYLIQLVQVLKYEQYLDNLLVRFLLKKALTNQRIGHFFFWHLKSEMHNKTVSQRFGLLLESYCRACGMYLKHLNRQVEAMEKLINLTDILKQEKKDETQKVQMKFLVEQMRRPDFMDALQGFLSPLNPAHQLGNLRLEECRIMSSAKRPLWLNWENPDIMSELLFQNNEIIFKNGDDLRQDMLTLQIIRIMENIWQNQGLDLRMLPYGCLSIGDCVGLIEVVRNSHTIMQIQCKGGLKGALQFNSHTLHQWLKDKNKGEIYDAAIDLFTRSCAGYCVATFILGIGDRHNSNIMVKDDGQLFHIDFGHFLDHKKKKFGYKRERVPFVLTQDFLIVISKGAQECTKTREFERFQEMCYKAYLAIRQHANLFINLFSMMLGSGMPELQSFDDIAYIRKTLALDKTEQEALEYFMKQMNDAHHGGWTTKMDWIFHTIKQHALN
Chain of PI3Kα WT (P27986 whole entry partner): as the sequence (P27986 whole entry partner) above
Chain of PI3Kα H1047R mutant (P42336 whole entry H1047R): as the sequence (P42336 whole entry) above, with H1047R counted along it
Chain of PI3Kα H1047R mutant (P27986 whole entry partner): as the sequence (P27986 whole entry partner) above

Row | Compound | IC50 (PI3Kβ) | IC50 ([1]; Homo sapiens) | IC50 ([2]; Homo sapiens, T47D, 72 h) | IC50 (PI3Kα H1047R mutant) | IC50 (PI3Kα WT) | IC50 ([3]; Homo sapiens) | IC50 [1] | IC50 [3] | IC50 [2]
1 | Cc1cc(C(C)Nc2ccc(Cl)nc2C(=O)O)c2oc(-c3ccc4nn(C)cc4c3)cc(=O)c2c1 (stereo not drawn) [Example 110, 6-chloro-3-((1-(6-methyl-2-(2-methyl-2-indazol-5-yl)-4-oxo-4H-chromen-8-yl)ethyl)amino)picolinic acid] | > 10000 nM | > 10 µM | 0.087 µM |  |  |  |  |  | 
2 | C[C@@H](Nc1ccccc1C(=O)O)c1cc(Cl)cc2c(=O)cc(-c3ccc4nn(C)cc4c3)oc12 (single isomer, unassigned) [Example 98B] |  |  |  | 19.5 nM | 1340 nM |  | > 10 µM | > 10 µM | > 10 µM
3 | Cc1cc([C@@H](C)Nc2ccccc2C(=O)O)c2oc(-c3ccc(OCCN(C)C)cc3)c(C)c(=O)c2c1 [Example 140, (R)-2-((1-(2-(4-(2-(dimethylamino)ethoxy)phenyl)-3,6-dimethyl-4-oxo-41-chromen-8-yl)ethyl)amino)benzoic acid] | > 10000 nM | > 10 µM | 0.041 µM | 42.3 nM | 2390 nM | 0.029 µM |  |  | 
4 | CC(=O)N1CCN(c2ccc(-c3oc4c([C@@H](C)Nc5ccccc5C(=O)O)cc(C)cc4c(=O)c3C)cc2)CC1 (single isomer, unassigned) [Example 123A] | 6460 nM | 5.6 µM | 0.076 µM | 37 nM | 1100 nM | 0.15 µM |  |  | 
5 | Cc1cc(C(C)Nc2ccccc2C(=O)O)c2oc(C3CCN(C(=O)C4CC4)CC3)cc(=O)c2c1 (stereo not drawn) [Example 30, 2-((1-(2-(1-(cyclopropanecarbonyl)piperidin-4-yl)-6-methyl-4-oxo-4H-chromen-8-yl)ethyl)amino)benzoic acid] |  | > 10 µM | 1.87 µM |  |  | 4 µM |  |  | 
6 | Cc1cc([C@@H](C)Nc2ccccc2C(=O)O)c2oc(-c3ccc4nn(C)cc4c3)c(C)c(=O)c2c1 [Example 49A, (R)-2-((1-(3,6-dimethyl-2-(2-methyl-211-indazol-5-yl)-4-oxo-4H-chromen-8-yl)ethyl)amino)benzoic acid] |  |  |  |  |  |  | > 10 µM | 0.09 µM | 0.07 µM
7 | Cc1cc([C@@H](C)Nc2ccccc2C(=O)O)c2oc(-c3ccc(CN4CCN(C)C(=O)C4)cc3)c(C)c(=O)c2c1 [Example 148, (R)-2-((1-(3,6-dimethyl-2-(4-((4-methyl-3-oxopiperazin-1-yl)methyl)phenyl)-4-oxo-4H-chromen-8-yl)ethyl)amino)benzoic acid] | > 10000 nM | > 10 µM | 0.066 µM | 48.5 nM | 4340 nM |  |  |  | 
8 | Cc1cc(C(C)Nc2ccccc2C(=O)O)c2oc(C3CCNCC3)cc(=O)c2c1 (stereo not drawn) [Example 15, 2-((1-(6-methyl-4-oxo-2-(piperidin-4-yl)-4H-chromen-8-yl)ethyl)amino)benzoic acid] |  | > 10 µM | > 10 µM |  |  | > 10 µM |  |  | 
9 | C[C@H](Nc1ccccc1C(=O)O)c1cc(Cl)cc2c(=O)cc(-c3ccc4nn(C)cc4c3)oc12 (single isomer, unassigned) [Example 98A] |  |  |  |  |  |  | > 10 µM | 0.09 µM | 0.038 µM
10 | Cc1cc(C(C)Nc2ccccc2C(=O)O)c2oc(C3=CCN(c4ccccc4)CC3)cc(=O)c2c1 (stereo not drawn) [Example 19, 2-((1-(6-methyl-4-oxo-2-(1-phenyl-1,2,3,6-tetrahydropyridin-4-yl)-4H-chromen-8-yl)ethyl)amino)benzoic acid] |  | > 10 µM | 0.35 µM |  |  | 1.39 µM |  |  | 
11 | CC(=O)N1CCN(c2ccc(-c3oc4c([C@H](C)Nc5ccccc5C(=O)O)cc(C)cc4c(=O)c3C)cc2)CC1 (single isomer, unassigned) [Example 123B] |  | > 10 µM | > 10 µM |  |  | > 10 µM |  |  | 
12 | Cc1cc(C(C)Nc2ccccc2C(=O)O)c2oc(C3=CCN(C(=O)OC(C)(C)C)CC3)cc(=O)c2c1 (stereo not drawn) [Example 14, 2-((1-(2-(1-(tert-butoxycarbonyl)-1,2,3,6-tetrahydropyridin-4-yl)-6-methyl-4-oxo-4H-chromen-8-yl)ethyl)amino)benzoic acid] |  | > 10 µM | 1 µM |  |  | 1.27 µM |  |  | 
13 | CC(=O)N1CCC(c2cc(=O)c3cc(C)cc(C(C)Nc4ccccc4C(=O)O)c3o2)CC1 (stereo not drawn) [Example 28, 2-((1-(2-(1-acetylpiperidin-4-yl)-6-methyl-4-oxo-4H-chromen-8-yl)ethyl)amino)benzoic acid] |  | > 10 µM | 1.77 µM |  |  | 3.61 µM |  |  | 
14 | Cc1cc(C(C)Nc2ccccc2C(=O)O)c2oc(C3CCN(c4ccccc4)CC3)cc(=O)c2c1 (stereo not drawn) [Example 18, 2-((1-(6-methyl-4-oxo-2-(1-phenylpiperidin-4-yl)-4H-chromen-8-yl)ethyl)amino)benzoic acid] |  | > 10 µM | 0.31 µM |  |  | 0.77 µM |  |  | 
15 | CC(=O)N1CCN(c2ccc(-c3oc4c([C@@H](C)Nc5ccccc5C(=O)O)cc(C)cc4c(=O)c3C)cc2F)CC1 [Example 154, (R)-2-((1-(2-(4-(4-acetylpiperazin-1-yl)-3-fluorophenyl)-3,6-dimethyl-4-oxo-41H-chromen-8-yl)ethyl)amino)benzoic acid] |  | > 10 µM | 0.074 µM |  |  | 0.086 µM |  |  | 

More lines, main results first:

Row | IC50 (PI3Kβ) | IC50 ([1]; Homo sapiens) | IC50 ([2]; Homo sapiens, T47D, 72 h) | IC50 (PI3Kα H1047R mutant) | IC50 (PI3Kα WT) | IC50 ([3]; Homo sapiens) | Compound | IC50 [1] | IC50 [3] | IC50 [2]
16 | 1150 nM |  |  |  |  |  | CC(Nc1ccccc1C(=O)O)c1cc(Cl)cc2c(=O)cc(-c3ccc4nn(C)cc4c3)oc12 (stereo not drawn) [Example 98, 2-((1-(6-chloro-2-(2-methyl-2H-indazol-5-yl)-4-oxo-4H-chromen-8-yl)ethyl)amino)benzoic] |  |  | 
17 | 1220 nM |  |  |  |  |  | Cc1cc(C(C)Nc2ccccc2C(=O)O)c2oc(-c3ccc(-c4cnn(C)c4)cc3)cc(=O)c2c1 (stereo not drawn) [Example 95, 2-((1-(6-methyl-2-(4-(1-methyl-1H-pyrazol-4-yl)phenyl)-4-oxo-4H-chromen-8-yl)ethyl)amino)benzoic acid] |  |  | 
18 |  | > 10 µM | 0.22 µM |  |  | 0.16 µM | Cc1cc(C(C)Nc2ccccc2C(=O)O)c2oc(-c3cc(C)c4nn(C)cc4c3)cc(=O)c2c1 (stereo not drawn) [Example 109, 2-((1-(2-(2,7-dimethyl-21-indazol-5-yl)-6-methyl-4-oxo-4H-chromen-8-yl)ethyl)amino)benzoic acid] |  |  | 
19 |  | > 10 µM | 0.5 µM |  |  | 0.57 µM | Cc1cc(C(C)Nc2ccccc2C(=O)O)c2oc(-c3ccc4ncccc4c3)cc(=O)c2c1 (stereo not drawn) [Example 35, 2-((1-(6-methyl-4-oxo-2-(quinolin-6-yl)-4H-chromen-8-yl)ethyl)amino)benzoic acid] |  |  | 
20 |  | > 10 µM | 0.32 µM |  |  | 0.42 µM | Cc1cc(C(C)Nc2ccccc2C(=O)O)c2oc(-c3ccncc3)cc(=O)c2c1 (stereo not drawn) [Example 33, 2-((1-(6-methyl-4-oxo-2-(pyridin-4-yl)-4H-chromen-8-yl)ethyl)amino)benzoic acid] |  |  | 
21 |  | > 10 µM | 0.21 µM |  |  | 0.2 µM | Cc1cc(C(C)Nc2ccccc2C(=O)O)c2oc(-c3ccc(N4CCOCC4)cc3)cc(=O)c2c1 (stereo not drawn) [Example 42, 2-((1-(6-methyl-2-(4-morpholinophenyl)-4-oxo-4H-chromen-8-yl)ethyl)amino)benzoic acid] |  |  | 
22 |  | > 10 µM | 1.98 µM |  |  | 2.49 µM | Cc1cc(C(C)Nc2ccccc2C(=O)O)c2oc(-c3cnoc3)cc(=O)c2c1 (stereo not drawn) [Example 39, 2-((1-(2-(isoxazol-4-yl)-6-methyl-4-oxo-4H-chromen-8-yl)ethyl)amino)benzoic acid] |  |  | 
23 |  | > 10 µM | 0.66 µM |  |  | 0.83 µM | Cc1cc(C(C)Nc2ccccc2C(=O)O)c2oc(-c3cccs3)cc(=O)c2c1 (stereo not drawn) [Example 26, 2-((1-(6-methyl-4-oxo-2-(thiophen-2-yl)-4H-chromen-8-yl)ethyl)amino)benzoic acid] |  |  | 
24 |  | > 10 µM | 0.75 µM |  |  | 0.56 µM | Cc1cc(C(C)Nc2ccccc2C(=O)O)c2oc(-c3ccc(Cl)cc3)cc(=O)c2c1 (stereo not drawn) [Example 3, 2-((1-(2-(4-chlorophenyl)-6-methyl-4-oxo-4H-chromen-8-yl)ethyl)amino)benzoic acid] |  |  | 
25 |  | > 10 µM | 4.63 µM |  |  | 7.82 µM | Cc1cc(C(C)Nc2ccccc2C(=O)O)c2oc(-c3ccn(C)c(=O)c3)cc(=O)c2c1 (stereo not drawn) [Example 34, 2-((1-(6-methyl-2-(1-methyl-2-oxo-1,2-dihydropyridin-4-yl)-4-oxo-4H-chromen-8-yl)ethyl)amino)benzoic acid] |  |  | 

— patent US20250136568A1, “FUSED HETEROCYCLIC COMPOUNDS AS PI3KALPHA INHIBITORS” (Nanjing Zenshine Pharmaceuticals Co., Ltd., priority 2021, published 2025)
